Where two headings read alike, the source gives them in different places.
Tests used:
[1] = test system: Leucoagaricus gongylophorus; experiment: Fungistatic inhibition: fungal inoculations exposed to wells containing botanical oils, mycelial growth toward the well vs unexposed controls; format: cell-based; settings: 21 days exposure to well containing oil; mycelial growth toward well vs unexposed control
[2] = test system: Leucoagaricus gongylophorus; settings: for Growth Evaluation: 30-day incubation, median of five replicates
Method: A similar lab trial was designed and performed to evaluate the fungicidal capacities of these botanical oils in addition to their fungistatic properties against L. gongylophorus. For this test, the plant oils were incorporated directly into the fungal growth medium at different concentrations (0.1, 1, and 5%). The growth of the fungus on this medium was evaluated after a 30-day incubation period, based on the quantity and density of the mycelium, according to the following pattern. Growth was characterized by the following measure: 5+ indicated growth identical to the control treatment (medium alone, with no plant oil treatment), or 100% growth; 4+ indicated growth equivalent to 80% of the control treatment growth; 3+ indicated 60%; 2+ indicated 40%; 1+ indicated 20%; and 0 indicated total elimination of the fungal colony.

COC(=O)c1ccccc1O [Methyl Salicylate]
Inhibition (%) of fungal growth (fungistatic) [1]: 100% | fungal mortality [2]: 100% | Growth Evaluation ([2]; concentration 0.1% in medium): 3+ (3+ indicated 60%) | Growth Evaluation ([2]; concentration 1% in medium): 0 | Growth Evaluation ([2]; concentration 5% in medium): 0

Source: US10251402B2, “Methods and compositions for controlling leaf-cutting ant populations” (ISCA Technologies, Inc., priority 2015, dated 2019)
